90 molecules from a melting point compilation (Tetko et al.; mined from patent text by program, amines drawn as free bases though some values may be those of a salt) can be followed below.

Each structure is given as a SMILES string.

By melting point is commonly meant the temperature of the solid-liquid transition. With `O=C(O)c1ccccc1NCCCN1c2ccccc2CCc2ccccc21`, the melting point lay within 170 to 172 °C.

For `O=C(NN1CCNC1=O)Sc1ccccc1`, the melting point fell in the range of 154 to 159 °C.

Consider `COc1cc2c(cc1F)CCN=C2C1(c2ccc(Cl)cc2Cl)CC1`, for which the melting point lay within 151 to 154 °C.

`Cc1c(NC(=O)CC(C)(C)C)cc2c(c1C)OC(C)(C)C2c1ccccc1OC(F)(F)F` (stereo not given): the melting point lay within 155 to 156 °C.

The molecule `COc1nc2cc([N+](=O)[O-])c(C)c(C(=O)Nc3ccccc3)c2nc1OC` returned a melting point of 238 to 240 °C.

In the case of `N#Cc1cc2c(Cl)ncnc2s1`, the melting point was 185 to 190 °C.

`ClC(c1ccccc1)c1cccnn1` (stereo not given) had a melting point of 110 to 112 °C.

Take `N#CCCCCCCn1c(-c2ccccc2)c(-c2ccccc2)n(-c2ccccc2)c1=O`: the melting point lay within 100 to 101 °C.

On to `CCN1CCN(c2cc(-c3ccccc3)c3ccccc3n2)CC1`, for which the melting point is 87 to 88 °C.

Consider `CCC1CC(=O)N(Cc2ccc(N)cc2)N=C1c1ccc(OC)c(OC2CCCC2)c1` (stereo not given), for which the melting point worked out at 109 °C.

The molecule `O=C(OCC(Cn1cnc2c(Cl)nc3ccccc3c21)OC(=O)c1ccccc1)c1ccccc1` (stereo not given) had a melting point of 162 to 165 °C.

On to `CC(Cc1ccc(OCC(N)=O)cc1)NCC(OCCO)c1ccc(O)cc1` (stereo not given), for which the melting point was in the range of 145 to 160 °C.

Regarding `O=C(NCCCCCCCCCCCCO)OC1CCN(C(=O)Oc2ccc(Oc3ccccc3)cc2)CC1`, the melting point was in the range of 75 to 76 °C.

For the molecule `CSC(Cc1ccc2oc(Cc3nc(-c4ccccc4)oc3C)cc2c1)C(=O)O` (stereo not given), the melting point is 178 to 179 °C.

Consider `COc1cc(N)c(Cl)cc1Cn1nc(-c2ccc(Cl)c(Cl)c2)oc1=O`, for which the melting point was 196 to 198 °C.

In the case of `COCCN(C)C1=N/C(=C\c2c[nH]c3ncc(Cl)cc23)C(=O)N1`, the melting point is 281 °C.

`CCCCCCCCCCn1c(C)cc(C)c(C#N)c1=O` came in with a melting point of 82 to 83 °C.

With `CC(C)(CCC#N)c1ccc(C(=O)Nc2cn3cc(Cl)ccc3n2)cc1`, the melting point lay in the range of 198 to 199 °C.

`CC1=C(CCCl)C(=O)C2Sc3ccccc3N2C1` (stereo not given) had a melting point of 114 °C.

Molecule `Cc1cccc(C=CC=C2SC(=S)N(CC(=O)O)C2=O)c1` returned a melting point of 220 to 226 °C.

The molecule `Cc1nc(C)c(-c2cncc(OC3SCC(O)C(O)C3O)c2)s1` (stereo not given) came in with a melting point of 150 °C.

For `Cc1ccc(C(=O)c2c(C)cc(C)cc2OCC(O)CNC(C)(C)C)cc1` (stereo not given), the melting point fell in the range of 116 to 118 °C.

With `c1ccc(N2CCN(Cc3coc4ccccc34)CC2)cc1`, the melting point was 103 to 105 °C.

`CC(C)CCOc1cccc2c1C(=O)CC(c1nnn[nH]1)O2` (stereo not given) had a melting point of 134 to 137 °C.

Consider `CCCc1c(OCCCOc2ccc(Cl)cc2)ccc2c1OC(CCC(=O)O)(CCC(=O)O)CC2=O`, for which the melting point was in the range of 133 to 134 °C.

Turning to `CCCn1c(=O)c(C(=O)OCC)c(N)c2cccnc21`, the melting point is 165 to 168 °C.

On to `Cc1cc(=O)c(OCc2ccccc2)c(C(=O)NC2CCCCC2)o1`, for which the melting point was 118 to 120 °C.

Regarding `CCC1(CCCN2CCN(c3cccc(Cl)c3)CC2)C(=O)Nc2ccccc21` (stereo not given), the melting point was in the range of 119 to 120 °C.

`N#CCCSN1C(=O)COCC1=O` had a melting point of 121 to 122 °C.

As to `N#Cc1cn2c(nc1=O)CCCCC2`, the melting point is 205 to 206 °C.

Turning to `O=C(Cc1ccccc1)Nc1cc(-c2ccc(Cl)cc2)[nH]n1`, the melting point lay within 222 to 224 °C.

`COc1cc(Oc2ccc(C(=O)N(C3CCCCC3)C3CCCC3)cc2)cc(OC)c1OC` showed a melting point of 166 °C.

`NC(=O)c1cccnc1N1CCN(CC(O)CO)CC1` (stereo not given) displayed a melting point of 140 to 142 °C.

Turning to `COc1ccc2c(OC(C)C)c(C(N)=O)ccc2c1`, the melting point is 183 to 184 °C.

Turning to `Cc1cc(-c2nc3cccnn3c2-c2ccnc(NC(=O)NC3CCCCC3)c2)ccc1F`, the melting point was in the range of 229 to 230 °C.

On to `CC(=O)NC[C@H]1CN(c2ccc3c(c2)CC(C)N3CCF)C(=O)O1` (stereo not given in full), for which the melting point lay in the range of 127 to 130 °C.

On to `O=C(CN1CCNCC1)Cn1c2ccc(Br)cc2c2cc(Br)ccc21`, for which the melting point turned out to be 175 °C.

For the molecule `OCc1ccc(OCCF)cc1`, the melting point was 37.3 to 38 °C.

Regarding `OCC1(CO)COC2(CCCCC2)N1`, the melting point lay in the range of 117 to 119 °C.

The molecule `CCC1CCn2c(nc(-c3ccncn3)cc2=O)N1CC(=O)c1ccccc1` (stereo not given) had a melting point of 187 to 189 °C.

`CCC(=Cc1cccc([N+](=O)[O-])c1)C(=O)Oc1ccc(OC)cc1`: the melting point lay in the range of 65 to 66 °C.

As for `Cn1c(CNc2ccc(Oc3cccc(C(F)(F)F)c3)cc2)nc([N+](=O)[O-])c1C#N`, the melting point lay within 124 to 126 °C.

Regarding `CC1(C)CC(=O)C2=C(C1)NC1=C(C(=O)CC(C)(C)C1)C2c1cccc(OCc2ccncc2)c1`, the melting point was in the range of 156 to 158 °C.

`COc1cccc(OCC(O)c2cccc(OCc3ccc4ccccc4n3)c2)c1` (stereo not given) registered a melting point of 103 to 105 °C.

In the case of `CC(C)(C)OC(=O)Nc1cc(N2CCC(OCCOC3CCCCO3)CC2)c(-c2ccc(F)cc2)cc1[N+](=O)[O-]` (racemic), the melting point lay within 144 to 146 °C.

`O=C(CCl)Nc1csc(NC(=O)CCl)n1` displayed a melting point of 188 to 192 °C.

As to `CCOC(=O)C(NC(=O)c1ccc(C)cc1)C(=O)OCC`, the melting point was in the range of 98 to 99 °C.

The molecule `COCCOc1ccc(/C=C/C(=O)NS(=O)(=O)c2ccc(C)cc2)c(Oc2ncc(C(F)(F)F)cc2Cl)c1` yielded a melting point of 102 to 106 °C.

Molecule `Cc1[nH]c(-c2ccccc2)c(NC(C)C)c1C(=O)c1ccccc1` showed a melting point of 132 to 136 °C.

For the molecule `CNCC1Cc2cc(Cl)cc(-c3ccccc3OC)c2O1` (stereo not given), the melting point lay in the range of 100 to 102 °C.

As for `CCOC(=O)c1c(CN2CCCCC2)nc2cc(OC)c(OC)cc2c1-c1ccc(OC)c(OC)c1`, the melting point lay within 148 to 149 °C.

Take `CCOc1cc2c(Nc3cc(OC)c(Cl)cc3Cl)c(C#N)cnc2cc1OCC1CCN(C)CC1`: the melting point was in the range of 182 to 186 °C.

`Cc1ccc(C(C)N2C(=O)c3ccccc3C2=O)cc1` (stereo not given) yielded a melting point of 65 to 66 °C.

Consider `O=C(CCNC(=O)[C@H](Cc1ccccc1)OP(=O)(O)CCCCc1ccccc1)OCc1ccccc1`, for which the melting point lay in the range of 64 to 70 °C.

Consider `C(=Cc1ccccc1)COC(CCc1ccccc1)Cn1ccnc1` (stereo not given), for which the melting point fell in the range of 116 to 119 °C.

With `COc1ccc2[nH]c(S(=O)Cc3ncnc(N4CCCCC4)c3C)nc2c1` (stereo not given), the melting point lay within 87 to 89 °C.

In the case of `CC(C)(C)c1ccc2c(c1)[C@H]1Cc3ccccc3[C@@]1(C)N2` (relative stereo), the melting point was in the range of 82 to 84 °C.

Regarding `Cn1ncnc1-c1oc2cccc(CCc3ccc(F)cc3)c2c(=O)c1O`, the melting point lay within 192 to 193 °C.

In turn, `CCOC(=O)Nc1ccc2c(c1)CCC2=O` gave a melting point of 181 to 182 °C.

On to `CCOC(=O)C(C#N)C(=O)c1nn(-c2ccccc2)c2c1COc1ccccc1-2` (stereo not given), for which the melting point lay in the range of 176 to 178 °C.

For `NC(CCO)C(=O)Nc1ccc(Cl)cc1Cl` (stereo not given), the melting point lay within 89 to 91 °C.

Molecule `O=C1CCC(N2Cc3c(OCc4ccc(CN5CCN(C(=O)C(F)(F)F)CC5)cc4)cccc3C2=O)C(=O)N1` (stereo not given) came in with a melting point of 125 to 127 °C.

On to `CCN(CC)C(=O)Cn1c(-c2ccc(C(F)(F)F)cc2)nc2cccnc21`, for which the melting point is 140 to 142 °C.

With `O=C1CSc2ccc(CO)nc2N1`, the melting point is 120 to 135 °C.

Molecule `NC(=O)Cc1ccc2c(c1)C(=O)Cc1ccccc1S2` gave a melting point of 171 to 172 °C.

Consider `CCCCCCc1cc2c(cc1OCCCC(=O)O)C(=O)C(C)(C)C2`, for which the melting point was 82 °C.

`CC=CC(Oc1nc(OC)cc(OC)n1)C(C)(C)C#N` (stereo not given) gave a melting point of 91 to 92 °C.

Take `COc1cnc2c(C)ccc(-c3cccc(C(F)(F)F)c3)c2n1`: the melting point is 119 to 121 °C.

For the molecule `O=C(O)c1oc(=O)c2ncccc2c1-c1ccccc1`, the melting point lay in the range of 288 to 290 °C.

`COc1ccc(-c2[nH]nc3c2C(=O)c2c(NC(=O)NNC(=O)c4ccc(N)cc4)cccc2-3)cc1` had a melting point of 247 °C.

With `OC(c1ccc(Br)cc1)(c1ccc(Br)cc1)c1ncc[nH]1`, the melting point was 192 to 194 °C.

`CCOC(=O)CC(c1ccccc1)c1ccc(N2CCN(CCC3CCN(C(=O)OC(C)(C)C)CC3)C2=O)cc1` (stereo not given) gave a melting point of 100 to 102 °C.

`CC(C)(CO)n1cnc2c(N)nc3ccccc3c21`: the melting point lay in the range of 277 to 281 °C.

As for `O=C(NS(=O)(=O)c1ccccc1)c1ccc(C=CC(=O)N2CCc3c([nH]c4ccccc34)C2c2ccc3c(c2)OCO3)cc1` (stereo not given), the melting point came to 134 °C.

Molecule `C=CCNC(=O)C1C=C(O)c2cc(Cl)ccc2O1` (stereo not given) came in with a melting point of 129 to 130 °C.

The molecule `CC(=O)OC1=CC2=CCC3C(CCC4(C)C(OC(C)=O)CCC34)C2CC1` (stereo not given) showed a melting point of 165 to 171 °C.

As for `N#CCn1nnc(N)n1`, the melting point was 105 to 106 °C.

Take `N#Cc1nc2ccc(Oc3ccc(C(F)(F)F)cc3Cl)cc2[nH]1`: the melting point worked out at 192 °C.

In the case of `CNc1cc(Br)cc(Sc2ccc([N+](=O)[O-])cc2)c1`, the melting point is 96 to 98 °C.

With `CC(C)(C)OC(=O)N1CC=C(c2ccc(NCc3ccccc3)cc2)CC1`, the melting point lay in the range of 120 to 121 °C.

`NS(=O)(=O)c1nc2ccc(O)cc2s1` returned a melting point of 209 °C.

As to `CC1CCNC(=C2C(=O)CC(C(C)C)CC2=O)N1` (stereo not given), the melting point was 71 to 83 °C.

Turning to `CS(=O)(=O)Nc1ccc(F)c(C(=O)O)c1`, the melting point was in the range of 203 to 205 °C.

Regarding `CSC1=C(c2cc3ccccc3s2)N2CCN=C2S1`, the melting point is 95 to 97 °C.

For the molecule `N#CCNC(=O)C1(NC(=O)c2ccc(Cn3ccnc3)cc2)CCCCC1`, the melting point was 194 to 196 °C.

`CCOC(=O)C1=Cc2cc(C=NO)ccc2OC1C(F)(F)F` (stereo not given) registered a melting point of 113 to 116 °C.

`CC(C)(Sc1cc(C(C)(C)C)c(O)c(C(C)(C)C)c1)Sc1cc(C(C)(C)C)c(OCCC[C@H](O)CO)c(C(C)(C)C)c1` showed a melting point of 68 to 71 °C.

`CCCOc1cc(-c2ccc3c(c2)C=C(C(=O)Nc2ccc(CN(C)C4CCOCC4)cc2)CCS3(=O)=O)ccc1C#N` had a melting point of 201 to 203 °C.

With `CC(C)N1CCC(=C2c3ccn(C)c3CCn3ccnc32)CC1`, the melting point came out at 178 °C.

Take `CC(=O)c1ccc(-c2ccc(F)cc2)c(F)c1`: the melting point was 80 to 82.5 °C.
